Results published in patent publication US10280217B2, “Cell culture additives and their use for increased bioprotein production from cells” (priority 2017, dated 2019).
Like-named read-outs stand apart in the source and are kept apart here.

Experiments:
[1] = system: CHO-HBS cells; experiment: Batch CHO cell process in 3 L bioreactors with gaseous or dissolved candidate Additives (VCD, antibody titer, qP); assay type: cell-based, Chinese hamster; conditions: vs control; for impact on protein biomolecule production or cell growth: gas sparged into 3 L batch cultures; for antibody titer / viable cell density (VCD) / cell growth / calculated specific cellular productivity (qP): 3 L batch cultures
Description: The following candidate gaseous and chemical additives were screened using a batch CHO cell process in a 3 L (2 L working volume) bioreactors. CHO-HBS cells were cultured in CDM4MAb media (HyClone Labaratories; Logan Utah; custom part containing base media cat# SH30801.02 supplemented with an additional 0.5 g/L poloxamer 188) in vented, plain-bottom Erlenmeyer flasks at 3-30×10^5 cells/mL. The cells were cultured for 14-16 days and then inoculated into 3 L semi-batch bioreactors at 3-4×10^5 cells/mL with 2 L working volumes. The bioreactor system monitored and controlled temperature, pH, % CO2, %02, sparge rate, and aeration rate. The bioreactors maintained a sparge rate of 0.1 vvm, 40% DO, and a pH value of 7.10. The pH was controlled by addition of CO2 or 1 N sodium bicarbonate solution. Additionally, 1 M glucose was added and adjusted daily to allow for a glucose consumption rate of 3 g/L/day. Each bioreactor was sampled daily (3-4 mL removed/day) for analysis. Gaseous additives were injected into the bioreactors using the following methods: • Inert Gas Injection (xenon): The bioreactor system controlled the flowrate and composition of oxygen, carbon dioxide, air, and nitrogen that was sparged into each bioreactor. The mixture composition was determined by the dissolved oxygen and pH levels in each reactor. House gas lines for these four gases were filtered and fed into the bioreactor mass flow control system. The effects of xenon were tested by replacing the nitrogen house gas feed with a cylinder containing xenon and replacing the air gas feed with a cylinder containing 21% oxygen and 79% xenon respectively. The system was calibrated for controlling the flowrate of the replacement gas by measuring the bioreactor mass flow controller flowrate for each gas at 12slph using a film flowmeter, then adjusting the gas correction factor for the bioreactor nitrogen or air mass flow controller until the flowrate on the film flowmeter and bioreactor system were the same. […] This allowed the CHO cells to be cultured with the maximum quantity of inert gas. • Reactive Gas Injection (nitric oxide, carbon monoxide, or hydrogen): The bioreactor module controlled the composition and flow of oxygen, air, nitrogen, and carbon dioxide gases as described previously. Reactive gases including nitric oxide, carbon monoxide, or hydrogen were introduced into the gas stream through a tee line connection before the gas mixture entered the bioreactors. The reactive gas flowrate was controlled using a mass flow controller and the flowrate of the bioreactor controlled mixture was adjusted to maintain the total gas flowrate into each reactor at 12slph.

[2] = system: HO-1; experiment: HO-1 expression in shake flask cultures; assay type: cell-based, Chinese hamster; conditions: shake flasks, vs control
Description: (§1) Cells were grown in CDM4MAb medium supplemented with poloxamer-188. Flasks were incubated on a shaker at 125 rpm in a humidified incubator at 37° C. and 5% CO2. DETA-NO was dissolved in 0.01 M sodium hydroxide solution at a 0.2 M concentration. Aliquots of DETA-NO solution were added daily to cell cultures to reach a final concentration of 0.09, 0.18 or 0.36 mM DETA-NO. Sodium hydroxide solution (0.01M) was added daily as a negative control. 0.01-1.0 mM DETA-NO release NO at a rate in the low nM/sec range (Bouton, C. and Demple, B., 2000. Nitric oxide-inducible expression of heme oxygenase-1 in human cells translation-independent stabilization of the mRNA and evidence for direct action of nitric oxide. Journal of Biological Chemistry, 275(42), pp. 32688-32693).
(§2) The effects of gaseous NO were partially recapitulated by adding NO-releasing compound DETA-NO daily to cell cultures in shake flasks. Cell growth and viability followed similar trends with addition of DETA-NO as with gaseous NO.

[3] = system: CHO-HBS cells; experiment: DETA-NO added daily to shake flask cultures (cell growth, viability); assay type: cell-based, Chinese hamster; conditions: shake flasks
Description: as §1, §2

[4] = cited from earlier work
[5] = system: Heme Oxygenase 1 (HO-1); experiment: HO-1 expression in 3 L cultures (RNA-seq, Western blot); assay type: cell-based, Chinese hamster; conditions: 3 L cultures exposed to the gas, vs control
Description: (§3) Gene expression profiles were captured using RNA-seq. Conesa A, Madrigal P, Tarazona S, et al. A survey of best practices for RNA-seq data analysis. Genome Biology. 2016; 17:13. doi:10.1186/s13059-016-0881-8. RNA was extracted with a RNeasy Plus Mini kit (Qiagen) and quantified by absorbance at 260 nm with a NanoDrop 2000 (Thermo Fisher Scientific). The RNA quality was assessed using a RNA 6000 Nano Kit (Agilent) and a Bioanalyzer (Agilent). RNA was fragmented and libraries were prepared using commercial kits (TruSeq RNA Library Prep Kit v2, Illumina). RNA was sequenced on a HiSeq 2500 (Illumina) at the DNA Sequencing & Genotyping Center of the University of Delaware. Data were analyzed at the Bioinformatics Core Facility, Center for Bioinformatics and Computational Biology of the University of Delaware. As the specific genome sequence of the CHO DG44 line was not available, a Chinese Hamster genome draft was used as a reference. Genes with differential expression (false discovery rate <0.001) were further analyzed with DAVID 6.8 (https://david.ncifcrf.gov/), STRING 10.0 (http://string-db.org/) and iProXpress (http://pir.georgetown.edu/iproxpress2/).
Exemplary transcript profiles of cells on days 1, 3 and 5 of 3 L cell cultures were generated between control and gaseous NO treated cultures to perform differential gene expression analysis (FIG. 16). […]

[6] = Antibody assembly by SDS-PAGE (non-reducing / reducing); assay type: physicochemical; conditions: NO-sparged vs control
Description: In the absence of reducing agents, the pool of IgGs consists of three structures: fully assembled IgGs, IgGs missing one light chain, and IgGs missing two light chains. Variations in the proportion of the three structures depend on the production process and intrinsic properties of the IgG molecules. […] In the presence of reducing agents, the three structures collapsed into two forms of approximately 52 and 26 kDa, corresponding to the heavy and light chains, respectively. No major differences were detected between antibodies produced in NO-sparged reactors compared to controls. Byproducts with an apparent molecular mass of 25 kDa were detected on day 10. These species, which might be degradation products of light chains, seemed to be an intrinsic feature of HBS antibodies independent from the NO-based process.

[7] = molecular target: T1, Caspase-3 (Cricetulus griseus, UniProt Q6JH80); experiment: Caspase-3 activity (EnzCheck Caspase-3 Assay Kit #1) in 3 L cultures; assay type: cell-based, Chinese hamster; conditions: 3 L cultures ± NO 300 ppm, same number of viable cells
T1 construct: endogenous in cells; host or cells: CHO-HBS cells (CHO DG44 derived), 3 L bioreactor cultures
T1 sequence (Q6JH80 29-175 limits assumed): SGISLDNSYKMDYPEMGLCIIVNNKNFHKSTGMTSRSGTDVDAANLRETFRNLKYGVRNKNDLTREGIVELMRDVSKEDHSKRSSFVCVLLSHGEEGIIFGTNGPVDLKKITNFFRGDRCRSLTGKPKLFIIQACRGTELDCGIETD
T1 sequence (Q6JH80 176-277 limits assumed): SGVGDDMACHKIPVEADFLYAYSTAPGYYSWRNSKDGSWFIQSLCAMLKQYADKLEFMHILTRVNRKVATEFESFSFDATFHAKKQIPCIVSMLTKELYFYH
Description: The NO-specific extension of viability correlates with a decrease in Caspase-3 activity (FIG. 20). Capase-3 activity was monitored with an EnzCheck Caspase-3 Assay Kit #1 (Thermo Fisher Scientific) using samples containing the same number of viable cells. All caspase proteases contain a single cystein at the enzyme catalytic site that is essential for activity. […] Thus, the observed lower caspase-3 activity may be due to a specific blockage of the catalytic cysteine residue through formation of nitrosylthiols.

[8] = system: glutathione-related enzymes (S-transferase proteins, catalases, oxidation resistance genes); experiment: Expression of glutathione-related enzymes in 3 L cultures (RNA-seq, Western blot); assay type: cell-based, Chinese hamster; conditions: gaseous NO vs control
Description: as §3
NO can oxidize intracellular molecules and thereby change the antioxidant levels within the cell, resulting in oxidative stress that potentially leads to membrane dysfunction, DNA damage and inactivation of proteins. […]

[9] = Glycosylation analysis (released glycans, HILIC); assay type: physicochemical; conditions: CHO-HBS cells treated with 300 ppm NO vs control
Description: Glycans were enzymatically released from purified IgGs, labeled with a fluorescent dye, and separated by hydrophilic interaction liquid chromatography (GlycoWorks RapiFluor-MS N-Glycan Kit, Waters). Glycans of IgGs purified from CHO-HBS cells were consistent with the typical patterns reported in the literature for proteins expressed in CHO cells. A heterogeneous population of glycans with high proportion of GOF structure followed by G1F and G2F was observed (FIG. 26).

SMILES: [Kr] [Krypton]
- impact on protein biomolecule production or cell growth [1]: did not significantly affect

SMILES: NCCN(CCN)/[N+]([O-])=N/O [DETA-NO, diethylenetriamine-nitric oxide adduct]
- HO-1 expression (oxidative stress response) [2]: HO-1 up regulation
- viable cell counts ([3]; daily addition, relative to control cultures): lower at the stationary phase but increased in the late phase of the culture
- cell death ([3]; higher concentrations tested): increased cell death
- half-life ([4]; 37° C., pH 7.4): 1200 min

SMILES: [O]N=O [Nitrogen Dioxide]
- antibody titer [1]: strongly negative effect
- viable cell density (VCD) / cell growth [1]: strongly negative effect

SMILES: CNCCCCCCN(C)/[N+]([O-])=N/O [MAHMA NONOate]
- half-life ([4]; 37° C., pH 7.4): 1 min

SMILES: CCN(CC)/[N+]([O-])=N/O.CCNCC [DEA-NO]
- half-life ([4]; buffer, pH 7.4): 2 min

SMILES: [Xe] [Xenon]
- impact on protein biomolecule production or cell growth [1]: do not have a significant impact

SMILES: [C-]#[O+] [Carbon Monoxide]
- antibody titer [1]: less impacted
- calculated specific cellular productivity (qP) [1]: higher than control
- viable cell density (VCD) / cell growth [1]: suppressed during the growth phase, but shows higher VCD at the end of the culturing period
- overall yield from batch culture ([1]; net effect of VCD to qP): overall smaller yield
- expression of HO-1 (oxidative stress response) [5]: did not lead to an increase

SMILES: [N]=O [Nitric Oxide]
- calculated specific cellular productivity (qP) [1]: boosted qP
- viable cell density (VCD) / cell growth [1]: shifted the cell culture VCD profile
- expression of HO-1 (oxidative stress response) [5]: induces expression
- overall IgG structure [6]: did not seem to impact
- Caspase-3 activity [7]: decrease
- expression of glutathione-related enzymes [8]: stimulates expression
- fucosylated glycans of IgGs [9]: minor reduction

SMILES: CCCN(CCCN)/[N+]([O-])=N/O [PAPA NONOate]
- half-life ([4]; 37° C., pH 7.4): 15 min

SMILES: [O-]/[N+](=N\O[C@@H]1O[C@H](CO)[C@H](O)[C@H](O)[C@H]1O)N1CCCC1 [β-Gal-NO]
- half-life ([4]; pH 5.6, following activation by β-galactosidase): six

SMILES: [HH] [Hydrogen]
- impact on protein biomolecule production or cell growth [1]: do not have a significant impact

SMILES: O=NO [Nitrite, Sodium Nitrite]
- HO-1 expression (oxidative stress response) [2]: does not activate
- antibody titer [1]: no significant impact
- viable cell density (VCD) / cell growth [1]: at most a small effect on VCD in the late phase of culture

SMILES: O=[N+]([O-])[O-].[Na+] [Nitrate, Sodium Nitrate]
- antibody titer [1]: no effect
- viable cell density (VCD) / cell growth [1]: no effect

SMILES: CC(C)N(CCCN)/[N+]([O-])=N/O [NOC-5]
- half-life ([4]; PBS (pH 7.4), 22° C.): 93 min

SMILES: [Ar] [Argon]
- impact on protein biomolecule production or cell growth [1]: did not significantly affect
